Values of other authors, collected in US9133185B2, “Heteroaryl derivatives” (CHIESI FARMACEUTICI S.P.A., priority 2013, dated 2015).

What was measured:
[1] = test system: smoking model of COPD in mice
[2] = test system: COPD patients
[3] = COPD patients, 500 mg once daily, given over 12 months
[4] = COPD patients, oral, given over 4 weeks
[5] = patients with severe disease who have frequent exacerbations and mucus hypersecretion

Compound: O=C(Nc1c(Cl)cncc1Cl)c1ccc(OC(F)F)c(OCC2CC2)c1 [Roflumilast, roflumilast]
- lung inflammation and emphysema [1]: inhibits lung inflammation and emphysema
- lung function [2, 3]: improved lung function in COPD patients to a small extent
- reducing exacerbations or improving quality of life [2, 3]: little effect
- CXCL8 concentrations in sputum [2, 4]: significantly reduces
- reduction of the numbers of neutrophils in sputum [2, 4]: 36%
- improvement of FEV 1 [2, 5]: approximately 50 mL
- reduction of exacerbation [2, 5]: about 15%
